According to patent US20260199287A1, “LIPO-HYDROXAMIC ACID DERIVATIVE AND PHARMACEUTICAL USE THEREOF” (MediciBIO Co., Ltd, priority 2022, published 2026):
Where two headings read alike, the source gives them in different places. Blank lines part the entries; values can stand above or below the molecule they belong to.

Tests used:
[1] = tested on: human corneal endothelial cells; experiment: In vitro antioxidant activity, ROS-Glo H2O2 assay in corneal dystrophy-like environment; format: cell-based; details: compared to control group (corneal dystrophy-mimicking: UV 5 J/cm^2 + TGF-β1 10 ng/ml); sample 4 h before induction
Experimental: (§1) PriNeu I medium, which is a serum-free medium, was supplemented with 10% fetal bovine serum, human epidermal growth factor (EGF), human vascular endothelial growth factor (VEGF), human insulin, human transferrin, sodium selenite, hydrocortisone, heparin, R estradiol, L-glutamine, penicillin/streptomycin, and G418 (geneticin). Human corneal endothelial cells (purchased from Creative Biolabs (NY, USA)) were seeded onto culture dishes coated with FNC Coating Mix (Athena Environmental Science, MD, USA) and incubated at 37° C. in a humidified 5% CO2 atmosphere.
To establish an intracellular environment similar to that of cells affected by corneal dystrophy (hereinafter referred to as “corneal dystrophy-like environment”), cellular signaling pathways involving reactive oxygen species (ROS) and transforming growth factor-beta (TGF-β), both known to be associated with corneal dystrophy, were activated. Human corneal endothelial cells were first cultured in standard medium for 24 hours, after which the medium was replaced with serum-free PriNeu I medium. The cells were then irradiated at an intensity of 5 J/cm^2 using a UV irradiation (BLX-Link, Vilber, France). Subsequently, the cells were treated with recombinant human TGF-β1 protein at a concentration of 10 ng/ml (Bon Opus, NJ, USA).
To determine the effect of the above-prepared lipo-hydroxamic acid derivatives on oxidative stress activity in corneal endothelial cells, human corneal endothelial cells were cultured at 1.5×10^4 cells per well in a 96-well plate coated with FNC Coating Mix for 18 to 24 hours. Subsequently, the cells were treated with the test samples (Samples 1, 3, and 5). […] The oxidative stress activity was determined by measuring the level of hydrogen peroxide (hereinafter referred to as “H2O2”) in the cell culture medium using the ROS-Glo™ H2O2 Assay (Promega, WI, USA) according to the manufacturer's instructions. The luminescence intensity was measured using the GloMax® Discover microplate reader (Promega) at an excitation wavelength of 485 nm and an emission wavelength of 520-530 nm.

[2] = tested on: N-cadherin; experiment: Real-time PCR, N-cadherin mRNA; format: cell-based, human; details: corneal dystrophy-like environment
Experimental: (§2) To identify the antioxidant mechanism of the lipo-hydroxamic acid derivative prepared above, real-time PCR was performed to detect the mRNA expression levels of the antioxidant enzymes downstream of Nrf2. First, human corneal endothelial cells were cultured at 3×10^5 cells per well in a 6-well plate coated with FNC Coating Mix for 18 to 24 hours, and the samples were treated. Four hours after the sample treatment, the corneal dystrophy-like environment was induced using the same method as described in Example 3-2. Twenty-four hours after inducing the corneal dystrophy-like environment, RNA was isolated from the cells using an RNA extraction kit (Bioneer, Daejeon), and cDNA was synthesized from […] of RNA using RT PreMix (Bioneer). Subsequently, real-time PCR was performed using GoTaq mater mix (Promega) containing SYBR green solution at 95° C. for 2 minutes, followed by 35 cycles at 95° C. for 15 seconds and at 60° C. for 1 minute.
(§3) To identify the effect of the lipo-hydroxamic acid derivative prepared above on the expression of fibrosis- and cellular degeneration-related factors in corneal endothelial cells, real-time PCR was performed to detect mRNA expression levels of the fibrosis marker N-cadherin, and the cellular degeneration markers collagen I and fibronectin. The real-time PCR was performed in the same manner as in Example 5-2 above.

[3] = tested on: HO-1; experiment: Real-time PCR, HO-1 mRNA; format: cell-based, human; details: corneal dystrophy-like environment
Experimental: as §2

[4] = format: in vitro ADME
[5] = tested on: fibronectin; experiment: Real-time PCR, fibronectin mRNA; format: cell-based, human; details: corneal dystrophy-like environment
Experimental: as §2, §3

[6] = tested on: Smad2/3; experiment: Western blot of Smad2/3 phosphorylation; format: cell-based, human; details: compared to the control group (corneal dystrophy-mimicking)
[7] = tested on: Nrf2; experiment: Nrf2 protein expression in corneal tissue in vivo (Western blot); design: species or system rat; details: 0.1% and 0.3% eye drops; compared to control (0.02% benzalkonium)
Experimental: (§4) To identify a mechanism of antioxidant activity of the lipo-hydroxamic acid derivative prepared above, Western blot was performed to detect protein expression of nuclear factor erythroid-2-related factor 2 (Nrf2; NCBI Gene ID: 4780) which is an antioxidant transcription factor. First, human corneal endothelial cells were cultured at 3×10^5 cells per well in a 6-well plate coated with FNC Coating Mix for 18 to 24 hours, and the samples were treated. Four hours after the sample treatment, the corneal dystrophy-like environment was induced in accordance with the method described in Example 3-2. […] Protein concentration in the supernatant was determined using a BCA kit (Thermo Fisher Scientific, MA, USA). […]
To determine the effect of the sample on oxidative stress, animal experiments were conducted using Sprague-Dawley rats (purchased from Bio Link). […] To determine whether oxidative stress was induced, the H2O2 level, an indicator of oxidative stress, was measured in the anterior aqueous humor and corneal tissue using the Amplex Red Hydrogen Peroxide/Peroxidase assay kit (Invitrogen, MA, USA) according to the manufacturer's instructions. Afterwards, the animal model received 10 μL drops (single dose) of the sample (Sample 1) at a dose of 0.1% or 0.3% for 24 hours, including pretreatment, three times a day for 3 days, and then the H2O2 level in the anterior aqueous humor was measured. […]

[8] = tested on: peroxiredoxin 1 (Prdx1); experiment: Real-time PCR, Prdx1 mRNA; format: cell-based, human; details: corneal dystrophy-like environment
Experimental: as §2

[9] = tested on: human corneal endothelial cells; experiment: Anti-apoptotic effect, CellTiter-Glo 2.0 cell viability assay in corneal dystrophy-like environment; format: cell-based; details: compared to control group (corneal dystrophy-mimicking); 24 hours treatment
Experimental: as §1, with “atmosphere. […]” for “atmosphere.”
In order to identify the effect of the lipo-hydroxamic acid derivative prepared above on apoptosis caused by corneal dystrophy in corneal endothelial cells, human corneal endothelial cells were cultured in the same manner as in Example 3-1. […] Afterwards, the samples (Samples 1, 4, and 5) were pretreated for 24 hours, and cell viability was measured via the CellTiter-Glo 2.0 cell viability assay (Promega). The number of viable cells was determined based on intracellular ATP levels, and the luminescence intensity was measured using a GloMax Discover microplate reader (Promega).

[10] = tested on: cleaved caspase-3; experiment: Western blot of cleaved caspase-3; format: cell-based, human; details: compared to the control group; environment induced 24 hours after sample treatment
Experimental: as §4
To identify the effect of the lipo-hydroxamic acid derivative prepared above on apoptosis in corneal endothelial cells, Western blot was performed to detect the protein expression of cleaved caspase-3 which is a major protease involved in apoptosis. […] The anti-cleaved caspase-3 antibody (Asp175; Cell Signaling Technology) was used as the primary antibody, and the cleaved caspase-3 expression was detected by a chemiluminescence image analysis system.

[11] = tested on: Sprague-Dawley rats; experiment: Antioxidant activity in vivo, H2O2 level after benzalkonium-induced corneal oxidative stress; design: species or system rat; details: 0.1% and 0.3% eye drops, 10 μL, three times a day for 3 days; compared to control (0.02% benzalkonium)
Experimental: To determine the effect of the sample on oxidative stress, animal experiments were conducted using Sprague-Dawley rats (purchased from Bio Link). To induce oxidative stress in the cornea of an animal model, the anterior chamber of the right eye was punctured using a syringe equipped with a 30G needle, and then the needle was inserted into the corneal limbus to inject 0.02% benzalkonium (BAK), a known oxidative stress inducer. The ocular surface was subsequently rinsed with sterile saline. To determine whether oxidative stress was induced, the H2O2 level, an indicator of oxidative stress, was measured in the anterior aqueous humor and corneal tissue using the Amplex Red Hydrogen Peroxide/Peroxidase assay kit (Invitrogen, MA, USA) according to the manufacturer's instructions. Afterwards, the animal model received 10 μL drops (single dose) of the sample (Sample 1) at a dose of 0.1% or 0.3% for 24 hours, including pretreatment, three times a day for 3 days, and then the H2O2 level in the anterior aqueous humor was measured. Additionally, proteins were extracted from the harvested corneal tissue, and Western blot was performed in the same manner as in Example 5-1 to examine the expression of the Nrf2 protein. […]

[12] = tested on: nuclear factor erythroid-2-related factor 2 (Nrf2); experiment: Western blot of Nrf2 protein expression; format: cell-based, human; details: compared to the control; corneal dystrophy-like environment
Experimental: To identify a mechanism of antioxidant activity of the lipo-hydroxamic acid derivative prepared above, Western blot was performed to detect protein expression of nuclear factor erythroid-2-related factor 2 (Nrf2; NCBI Gene ID: 4780) which is an antioxidant transcription factor. First, human corneal endothelial cells were cultured at 3×10^5 cells per well in a 6-well plate coated with FNC Coating Mix for 18 to 24 hours, and the samples were treated. Four hours after the sample treatment, the corneal dystrophy-like environment was induced in accordance with the method described in Example 3-2. Twenty-four hours after induction of the corneal dystrophy-like environment, the cells were washed with phosphate-buffered saline (PBS) and lysed using RIPA lysis buffer (GenDEPOT) containing protease inhibitor cocktail tablets (GenDEPOT, TX, USA). The cell lysates were centrifuged at 13,000 rpm at 4° C. for 10 minutes to obtain the supernatant. Protein concentration in the supernatant was determined using a BCA kit (Thermo Fisher Scientific, MA, USA). Equal amounts of protein were mixed with 5x SDS sample buffer and boiled for 5 minutes, followed by gel electrophoresis. The separated proteins were transferred to a nitrocellulose membrane (GenDEPOT), and nonspecific antibody binding was blocked by incubating the membrane in 5% skim milk at room temperature for 1 hour. […]

[13] = tested on: collagen I; experiment: Real-time PCR, collagen I mRNA; format: cell-based, human; details: corneal dystrophy-like environment
Experimental: as §2, §3

[14] = tested on: Smad3; experiment: SMAD3 (pS423/pS425) ELISA; format: cell-based, human; details: compared to the control group (corneal dystrophy-like environment)
Experimental: To identify the effect of the lipo-hydroxamic acid derivative prepared above on the expression of factors associated with fibrosis- and cellular degeneration-related factors in corneal endothelial cells, ELISA was performed to observe the activity of Smad3 protein. Analysis was carried out using SMAD3 (pS423/pS425) Human InstantOne ELISA kit (Thermo Fisher Scientific) according to the manufacturer's instructions. Human corneal endothelial cells were seeded in a 96-well plate at 2×10^4 cells per well, cultured for 24 hours, and then treated with the sample. Twenty-four hours after the sample treatment, the corneal dystrophy-like environment was induced in the same manner as in Example 3-2. Twenty-four hours after the induction, the cells were washed with PBS, lysed by adding 100 μL of lysis buffer mixture prepared by mixing the cell lysis reagent and buffer supplied in the kit. Subsequently, 50 μL of the cell lysate from each sample was added to the ELISA microplate wells. A 1:1 mixture of capture antibody and detection antibody, as provided in the kit, was prepared to form an antibody cocktail, and 50 μL of this mixture was added to each well. The plate was sealed and incubated at room temperature on a shaker at 300 rpm for 1 hour. […] The plate was then read using a microplate reader (Promega) at an absorbance of 450 nm.

[15] = tested on: ABCB6; experiment: Real-time PCR, ABCB6 mRNA; format: cell-based, human; details: corneal dystrophy-like environment
Experimental: as §2

[16] = Stability as an eye drop composition (HPLC peak area); format: physicochemical; details: for Peak area(%) Sample 1 / Peak area(%) Total amount of decomposed products: HPLC
Experimental: In order to identify the stability of the lipo-hydroxamic acid derivative prepared above as an eye drop composition, the ratio (peak area, % o) of the active ingredient and decomposed product of the sample (Sample 1) was determined via HPLC analysis.

[17] = tested on: NQO-1; experiment: Real-time PCR, NQO-1 mRNA; format: cell-based, human; details: corneal dystrophy-like environment
Experimental: as §2

Compound: CN(OCCO)C(=O)CCCC[C@@H]1CCSS1 [Sample 3, (R)-5-[1,2]dithiolan-3-yl-pentanoic acid (2-hydroxy-ethoxy)-methyl-amide]
oxidative stress (H2O2 level in cell culture medium) [1]: significantly decreased

Compound: O=C(CCCCC1CCSS1)N(O)C(=O)CCCCC1CCSS1 (stereo not drawn) [Sample 5, 5-[1,2]dithiolan-3-yl-pentanoic acid (5-[1,2]dithiolan-3-yl-pentanoyl-hydroxy-amide)]
oxidative stress (H2O2 level in cell culture medium) [1]: significantly decreased

Peak area (%) ([4]; 0.5 h): 97.37%
Peak area (%) ([4]; 2 h): 92.65%
Peak area (%) ([4]; 18 h): 17.42%
Peak area (%) ([4]; 24 h): 6.00%
Peak area(%) Sample 1 ([16]; Day 1): 99.36%
Peak area(%) Total amount of decomposed products ([16]; Day 1): 0.62%
Peak area(%) Sample 1 ([16]; Day 2): 99.20%
Peak area(%) Total amount of decomposed products ([16]; Day 2): 0.80%
Peak area(%) Sample 1 ([16]; Day 3): 99.36%
Peak area(%) Total amount of decomposed products ([16]; Day 3): 0.64%
Peak area(%) Sample 1 ([16]; Early stage): 99.72%
Peak area(%) Total amount of decomposed products ([16]; Early stage): 0.28%
stability in a liquid phase ([16]; up to day 3): good stability
Compound: O=C(CCCCC1CCSS1)NOCCO (stereo not drawn) [Sample 1, 5-[1,2]dithiolan-3-yl-pentanoic acid (2-hydroxy-ethoxy)-amide]
mRNA expression of N-cadherin [2]: significantly decreased in a concentration-dependent manner
mRNA expression of HO-1 [3]: significantly increased
mRNA expression of fibronectin [5]: significantly decreased in a concentration-dependent manner
phosphorylation of Smad2/3 protein [6]: significantly decreased
Nrf2 expression in corneal tissue [7]: significantly increased depending on the concentration of the sample
mRNA expression of peroxiredoxin 1 (Prdx1) [8]: significantly increased
concentration from which a significant increase in cell viability was observed [9]: ≥ 30 µM
protein expression of cleaved caspase-3 [10]: significantly decreased in a concentration-dependent manner
decrease of H2O2 in the anterior aqueous humor [11]: 40-70%
Nrf2 protein expression [12]: significantly increased
mRNA expression of collagen I [13]: significantly decreased in a concentration-dependent manner
activity of the Smad3 protein [14]: significantly decreased
oxidative stress (H2O2 level in cell culture medium) [1]: significantly decreased
mRNA expression of ABCB6 [15]: significantly increased
mRNA expression of NQO-1 [17]: significantly increased
